# Values quoted from earlier work as cited in patent US20060173179A1, “Azabenzoxazoles for the treatment of CNS disorders” (Pfizer Inc, priority 2004, published 2006).
# Columns and labels:
# [1] = not given; remark: listed apart in the source
smiles,measurement,setting,value
"O=C1Cc2cc(CCN3CCN(c4nsc5ccccc45)CC3)c(Cl)cc2N1 [Ziprasidone, 5-[2-[4-(1,2-benzisothiazol-3-yl)piperazin-1-yl]ethyl]-6-chloroindolin-2-one]",half-life,in vivo,6 to 7 h
same,Oral bioavailability,taken with food,approximately 60%
same,protein binding,[1],extensive
